The numbers were not newly measured in US6673157B1, “Methods for stripping paint with DMSO containing compositions” (Gaylord Chemical Corporation, priority 2000, dated 2004), which cites them from elsewhere.

SMILES strings stand for the structures.

For series [1] the following is noted: DMSO concentrations as high as 40%; living human skin.
The conditions of series [2]: applied to intact human skin in vivo; abrupt fall-off below 70%.
The conditions of series [3]: pure substance.

Take `C[S+](C)[O-]` [DMSO, dimethyl sulfoxide]: the “LD50 oral rat toxicity” value was “approximately 17,400 milligrams per kilogram”. The “Effect of DMSO on rate of skin penetration of octyl acetate” value in series [1] is recorded as “did not increase the rate of skin penetration of octyl acetate”. For the same compound, in series [2], the “DMSO concentration at which it penetrates intact skin to the blood vessels” value is on record as no less than 70%. Further, in series [3], the “Rate of penetration of animal skin” value is “approximately 176±42 g/m^2/hr”.
As for `CC(=O)OC(C)(C)C` [t-butyl acetate], the “LD50 oral rat toxicity” value was “about 4500 mg per kilogram”.
For `O` [water, reference compound], the “Rate of penetration of animal skin” value in series [3] is “approximately 14.8±0.1 g/m^2/hr”.
